ChEMBL document CHEMBL2401647, “High potency improvements to weak aryl uracil HCV polymerase inhibitor leads” (Bioorg Med Chem Lett, 2013)
pEC50, pIC50: −log10 of the molar value. Values after ≈ are worked out from the molar mass of the structure shown.

How the values were obtained:
[1] = Inhibition of Hepatitis C virus genotype 1a NS5B polymerase; design: species or system Hepatitis C virus subtype 1a
[2] = system: Hepatitis C virus; test: Inhibition of Hepatitis C virus genotype 1b NS5B polymerase; design: species or system Hepatitis C virus subtype 1b
[3] = system: Hepatitis C virus; test: Antiviral activity against Hepatitis C virus genotype 1a infected in human HuH7 cells; assay type: functional, organism-based, Hepacivirus hominis; settings: subtype 1a, Huh-7
[4] = system: Hepatitis C virus; test: Antiviral activity against Hepatitis C virus genotype 1b infected in human HuH7 cells; assay type: functional, organism-based, Hepacivirus hominis; settings: Huh-7
[5] = Cytotoxicity against human HuH7 cells; assay type: cell-based; settings: Huh-7 cells, read-out: TD50 (the source's name)
[6] = AUC in rat; assay type: ADME, organism-based; settings: plasma
[7] = Oral bioavailability in rat; assay type: ADME, organism-based; settings: in vivo
[8] = AUC in po dosed rat; assay type: ADME, organism-based; settings: plasma
[9] = Half life in iv dosed rat; assay type: ADME, organism-based; settings: in vivo
[10] = Solubility of the compound; assay type: physicochemical
[11] = Permeability of the compound; assay type: ADME; settings: not told; read-out: permeability

Structure (SMILES)	pIC50 [1]	pIC50 [2]	pEC50 [3]	pEC50 [4]	AUC [6] [ng·h/mL]	bioavailability [7] [%]	AUC [8] [ng·h/mL]	half-life [9] [min]	solubility [10] [µM]	Papp [11] [×10⁻⁶ cm/s]	CC50 [5] [nM]
CN(c1ccc(NC(=O)c2cc(N3CCC(=O)NC3=O)cc(C(C)(C)C)c2O)cc1)S(C)(=O)=O	6.34	7.52	5.45	5.98							> 50000
COc1c(C(=O)Nc2ccc(N(C)S(C)(=O)=O)cc2)cc(N2CCC(=O)NC2=O)cc1C(C)(C)C	6.11	6.08	5.26	6.25							> 50000
COc1c(C(=O)Nc2ccc(OS(C)(=O)=O)cc2)cc(N2CCC(=O)NC2=O)cc1C(C)(C)C	6.17	5.98	5.47	6.07							> 50000
COc1c(C(=O)Nc2ccc(NC(C)=O)cc2)cc(N2CCC(=O)NC2=O)cc1C(C)(C)C	5.47	5.29									
CC(C)(C)c1cc(N2CCC(=O)NC2=O)ccc1O	4.15	4.64	< 4.00	< 4.00							
COc1c(C(=O)Nc2ccc(N)cc2)cc(N2CCC(=O)NC2=O)cc1C(C)(C)C	5.69	5.91	< 4.30	5.37							
CC(C)(C)c1cc(N2CCC(=O)NC2=O)cc(C(=O)Nc2ccc(OS(C)(=O)=O)cc2)c1O	6.74	7.52	5.33	5.95							> 50000
CC(C)(C)c1cc(N2CCC(=O)NC2=O)cc(C(=O)Nc2ccccc2)c1O	5.37	6.64	4.73	5.20							
CC(C)(C)c1cc(N2CCC(=O)NC2=O)cc(C(=O)Nc2cccc(NS(C)(=O)=O)c2)c1O	6.44	7.30	4.56	5.12							> 50000
CC(C)(C)c1cc(N2CCC(=O)NC2=O)cc(C(=O)NCc2ccccc2)c1O	5.07	6.03	4.85	4.82							
COc1ccc(N2CCC(=O)NC2=O)cc1C(C)(C)C	4.59		< 4.00	< 4.00	12400	45	5570	228	73 (≈ 20.2 µg/mL)	5.5	
COc1c(C(=O)Nc2ccccc2)cc(N2CCC(=O)NC2=O)cc1C(C)(C)C	6.05	6.12	5.44	5.99	2190	15	330	30	12 (≈ 4.75 µg/mL)	1.4	
COc1c(C(=O)Nc2ccc(NS(=O)(=O)CCN3CCOCC3)cc2)cc(N2CCC(=O)NC2=O)cc1C(C)(C)C	6.96	6.51	5.27	6.24	2540	0		36	74 (≈ 43.5 µg/mL)	0.1	

These reach a higher pIC50 [1]. Values come first.

pIC50 [1]	pIC50 [2]	pEC50 [3]	pEC50 [4]	AUC [6] [ng·h/mL]	bioavailability [7] [%]	AUC [8] [ng·h/mL]	half-life [9] [min]	solubility [10] [µM]	Papp [11] [×10⁻⁶ cm/s]	Structure (SMILES)	CC50 [5] [nM]
8.00	7.70	7.22	7.70	3380	1.5	50	66	2 (≈ 0.977 µg/mL)	0.5	COc1c(C(=O)Nc2ccc(NS(C)(=O)=O)cc2)cc(N2CCC(=O)NC2=O)cc1C(C)(C)C	
7.42	8.00	6.23	7.03							CC(C)(C)c1cc(-n2ccc(=O)[nH]c2=O)cc(C(=O)Nc2ccc(NS(C)(=O)=O)cc2)c1O	
7.30	8.15	5.71	6.38							CC(C)(C)c1cc(N2CCC(=O)NC2=O)cc(C(=O)Nc2ccc(NS(=O)(=O)CCN3CCOCC3)cc2)c1O	
7.70	8.70	6.41	7.30							CC(C)(C)c1cc(N2CCC(=O)NC2=O)cc(C(=O)Nc2ccc(NS(C)(=O)=O)cc2)c1O	
7.70	7.52	6.57	7.30					13 (≈ 6.33 µg/mL)	0.2	COc1c(C(=O)Nc2ccc(NS(C)(=O)=O)cc2)cc(-n2ccc(=O)[nH]c2=O)cc1C(C)(C)C	
